This passage reports IC50 and Activity results from ChEMBL document CHEMBL3400002, “Structure-activity study for (bis)ureidopropyl- and (bis)thioureidopropyldiamine LSD1 inhibitors with 3-5-3 and 3-6-3 carbon backbone architectures” (Bioorg Med Chem, 2015).

In experiment [1] the target is T1, Amine oxidase [flavin-containing] A (Homo sapiens, UniProt P21397).
T1 sequence (P21397 whole entry): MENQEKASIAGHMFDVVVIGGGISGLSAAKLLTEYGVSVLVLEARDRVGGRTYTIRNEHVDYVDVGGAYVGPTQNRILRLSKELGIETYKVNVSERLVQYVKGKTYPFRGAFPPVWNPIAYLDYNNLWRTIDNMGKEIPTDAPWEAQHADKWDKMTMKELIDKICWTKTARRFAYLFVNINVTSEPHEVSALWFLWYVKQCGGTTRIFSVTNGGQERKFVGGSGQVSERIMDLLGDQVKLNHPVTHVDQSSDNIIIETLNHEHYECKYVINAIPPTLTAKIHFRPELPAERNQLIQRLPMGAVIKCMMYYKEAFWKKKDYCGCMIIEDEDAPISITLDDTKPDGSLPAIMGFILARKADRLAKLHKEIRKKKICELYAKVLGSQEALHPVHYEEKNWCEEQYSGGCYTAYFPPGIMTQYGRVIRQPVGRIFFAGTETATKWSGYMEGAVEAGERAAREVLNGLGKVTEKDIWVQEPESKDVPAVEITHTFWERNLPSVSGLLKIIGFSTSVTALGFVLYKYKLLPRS
Description: Inhibition of MAO-A (unknown origin) by MAo-Glo kit analysis

Experiment [2] concerns the target T2, Amine oxidase [flavin-containing] B (Homo sapiens, UniProt P27338).
T2 sequence (P27338 whole entry): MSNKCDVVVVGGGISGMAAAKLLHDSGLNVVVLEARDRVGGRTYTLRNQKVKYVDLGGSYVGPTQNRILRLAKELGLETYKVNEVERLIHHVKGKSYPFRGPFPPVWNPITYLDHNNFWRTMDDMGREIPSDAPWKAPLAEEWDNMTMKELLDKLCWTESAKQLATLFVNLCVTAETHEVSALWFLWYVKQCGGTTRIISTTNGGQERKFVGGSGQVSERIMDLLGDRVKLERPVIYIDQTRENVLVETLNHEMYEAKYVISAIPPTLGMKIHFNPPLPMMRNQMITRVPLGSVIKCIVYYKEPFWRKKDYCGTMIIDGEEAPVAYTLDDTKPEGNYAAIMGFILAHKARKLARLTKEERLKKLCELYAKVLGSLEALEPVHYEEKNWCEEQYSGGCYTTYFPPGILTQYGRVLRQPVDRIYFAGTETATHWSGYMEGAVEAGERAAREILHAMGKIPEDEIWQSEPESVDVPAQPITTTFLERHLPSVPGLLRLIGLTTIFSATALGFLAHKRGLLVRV
Description: Inhibition of MAO-B (unknown origin) by MAo-Glo kit analysis

Experiment [3] concerns the target Lysine-specific histone demethylase 1A (Homo sapiens) (UniProt O60341). As to the kind of experiment: Activation of human recombinant LSD1 at 10 uM after 30 mins to 4 hrs by fluorescence assay relative to control.

One may read the IC50 as the concentration that gives 50% inhibition. Higher therefore signals a need for much substance.

For the compound `N=C(NCCCNCCCCCCCNCCCNC(=N)NC(=N)NCCC(c1ccccc1)c1ccccc1)NC(=N)NCCC(c1ccccc1)c1ccccc1`, the IC50 was 37 µM in experiment [1] and 10 µM in experiment [2].

In the case of `CCCNC(=O)NCCCNCCCCCCNCCCNC(=O)NCCC`, the Activity in experiment [3] stood at 119%.

For `O=C(NCCCNCCCCCCNCCCNC(=O)NCc1ccccc1)NCc1ccccc1`, the Activity in experiment [3] amounted to 110%.

On to `CCNC(=O)NCCCNCCCCCCNCCCNC(=O)NCC`, for which the Activity in experiment [3] is 119%.

Regarding `O=C(NCCCNCCCCCNCCCNC(=O)Nc1ccccc1)Nc1ccccc1`, in experiment [3], the Activity is 163%.
